A short description of data set [1]: Evaluation for dissolvability of phytochemical (dissolution rate in water). The note with it: for Dissolution rate: ultrapure water, shaken for 3 hours, centrifuged supernatant. An excerpt:
In the present invention, the “dissolution rate” is an index indicating dissolvability of a compound into water, and is also represented by the value, in terms of the percentage (%), obtained by dividing a concentration (w/v) of the compound in a supernatant, which is obtained by shaking the compound in pure water to dissolve the compound therein and by centrifuging the solution, by a concentration (w/v) of the compound in pure water before being dissolved therein. The concentration may be measured by using a spectrophotometer. […] The temperature condition in the measurement of the “dissolution rate” is set to 21±2° C.
Furthermore, 10 mL of ultrapure water was added to the glucoside phytochemical such that the amount of aglycone (portion other than carbohydrate obtained by hydrolysis of glucoside) can be equal to 33.3 mg; namely, 67.3 mg of rutin (33.3 mg of quercetin); 89.6 mg of α-glucosyl rutin (33.3 mg of quercetin); 67.3 mg of hesperidin (33.3 mg of hesperetin); or 71.0 mg of naringin (33.3 mg of naringenin). As for the terpenoids, in accordance with the administering amount used in Experiments, 10 mL of ultrapure water was added to 3.3 mg of each of β-carotene and lycopene. The solutions thus prepared were shaken for 3 hours, and then, were centrifuged at 2000×g for 10 minutes. The centrifuged supernatants were filtrated by using a 0.45 μL filter. […] Each compound was dissolved in 80% methanol or methanol to obtain a calibration curve; and then, the concentration of the centrifuged supernatant was obtained. A series of the operations above were carried out under the temperature condition of 21±2° C. The dissolution rate was calculated in accordance with the following formula. Dissolution rate (%)=[(concentration of the centrifuged supernatant after dissolution by shaking (w/v))+(concentration of the solution before dissolution by shaking (w/v)]×100

The next data set in a line: in vivo. The note with it: male, SD, rat, 5 mg/kg.
Data set [2] is described as follows: Experiment 3: promoting absorption of β-carotene, yogurts of strain combinations. The data set is classed as in vivo. The settings on record: male, SD, oral; rat serum, 5 mg/kg-body weight β-carotene, 11.3 g/kg-body weight yogurt, up to 480 minutes; read-out: Area Under the blood concentration-time Curve (AUC) of β-carotene (converted). As for the experimental part: (§1) Column temperature was set at 40° C.
The yogurts thus obtained contained 15 μg/g, 54 μg/g, and 67 μg/g of the polysaccharide, respectively.

Data set [3] in a line: Experiment 5: promoting absorption of β-carotene, comparison with other absorption promotors. Type of data set: in vivo. The note with it: male, SD, oral; rat serum, 5 mg/kg-body weight β-carotene, 70 mg/kg-body weight polysaccharide, up to 480 minutes; read-out: Area Under the blood concentration-time Curve (AUC) of β-carotene (converted). As for the experimental part: A part of the yogurt of Experiment 4 (Lactobacillus bulgaricus OLL1251 and Streptococcus thermophilus OLS3290) was taken; and then, to the supernatant thereof was added ethanol the amount of which was three times as much as the supernatant. The resulting mixture was kept in a frozen state, and thereafter, the supernatant of the mixture was centrifuged to obtain a precipitate. This precipitate was freeze-dried to obtain a polysaccharide concentrate. In 11.3 g of the yogurt, 70 mg of the polysaccharide concentrate was included. Hereinafter, the polysaccharide concentrate obtained is called “lactic acid bacterium-originated polysaccharide concentrate”.

Data set [4] in a line: Experiment 1: promoting absorption of β-carotene, yogurts of OLL1251 and other strains. The note with it: male, SD, oral; rat serum, 5 mg/kg-body weight β-carotene, 11.3 g/kg-body weight yogurt, up to 480 minutes; read-out: Area Under the blood concentration-time Curve (AUC) of β-carotene (converted). The data set is classed as in vivo. As for the experimental part: as §1
The yogurts thus obtained contained 136 μg/g, 88 μg/g, and 68 μg/g of the polysaccharide, respectively.

The mark [5] stands for this setting: concentration of the centrifuged supernatant after shaking in ultrapure water, 21±2° C., glucosides in terms of the aglycone.

Read-outs that look alike come from different tables or passages of the source.

With `C[C@@H]1O[C@@H](O[C@H]2[C@H](Oc3cc(O)c4c(c3)O[C@H](c3ccc(O)cc3)CC4=O)O[C@H](CO)[C@@H](O)[C@@H]2O)[C@H](O)[C@H](O)[C@H]1O` [Naringin], the Saturated solubility in data set [1] stood at 55 mg/100 g. Besides, the Dissolution rate in data set [1] (21±2° C.) was 17%.
Turning to `CC1=C(/C=C/C(C)=C/C=C/C(C)=C/C=C/C=C(C)/C=C/C=C(C)/C=C/C(=O)[C@]2(C)C[C@@H](O)CC2(C)C)C(C)(C)C[C@H](O)C1` [Capsanthin], the Saturated solubility in data set [1] was 0.1 or less mg/100 g. In data set [1] (21±2° C.), the Dissolution rate was 0.1% or less.
With `O=C1C[C@@H](c2ccc(O)cc2)Oc2cc(O)cc(O)c21` [Naringenin], the Saturated solubility in data set [1] was determined as 1.1 mg/100 g. The Dissolution rate in data set [1] (21±2° C.) came out at 0.3%.
In data set [1] (setting [5]), `O=c1c(-c2ccc(O)cc2)coc2cc(O)cc(O)c12` [Genistein] yielded a Saturated solubility of 0.6 mg/100 g. Further, the Dissolution rate in data set [1] (21±2° C.) was determined as 0.2%.
Turning to `CC(C)=CCC/C(C)=C/C=C/C(C)=C/C=C/C(C)=C/C=C/C=C(C)/C=C/C=C(C)/C=C/C=C(\C)CCC=C(C)C` [Lycopene], the Saturated solubility in data set [1] is on record as 0.1 or less mg/100 g. For the same compound, the Dissolution rate in data set [1] (21±2° C.) is on record as 0.1% or less.
Regarding `O=c1cc(-c2ccc(O)c(O)c2)oc2cc(O)cc(O)c12` [Luteolin], the Saturated solubility in data set [1] is given as 0.1 or less mg/100 g. The Dissolution rate in data set [1] (21±2° C.) is reported as 0.1% or less.
Taken in the same sequence, the figures for α-Glucosyl rutin were 295 mg/100 g and 89%.
For the compound `COc1ccc([C@@H]2CC(=O)c3c(O)cc(O[C@@H]4O[C@H](CO[C@@H]5O[C@@H](C)[C@H](O)[C@@H](O)[C@H]5O)[C@@H](O)[C@H](O)[C@H]4O)cc3O2)cc1O` [Hesperidin], in data set [1] (setting [5]), the Saturated solubility is 0.5 mg/100 g. This compound also came in with a Dissolution rate in data set [1] (21±2° C.) of 0.2%.
As for `CC1=CCCC(C)(C)C1/C=C/C(C)=C/C=C/C(C)=C/C=C/C=C(C)/C=C/C=C(C)/C=C/C1=C(C)CCCC1(C)C` (stereo not drawn) [α-Carotene], the Saturated solubility in data set [1] is given as 0.1 or less mg/100 g. Moreover, the Dissolution rate in data set [1] (21±2° C.) is recorded as 0.1% or less.
For the compound `Oc1cc(O)c2c(c1)O[C@H](c1ccc(O)c(O)c1)[C@H](O)C2` [Epicatechin], in data set [1], the Saturated solubility is given as 287 mg/100 g.
In data set [1], `O=c1c(O)c(-c2ccc(O)c(O)c2)oc2cc(O)cc(O)c12` [Quercetin] had a Saturated solubility of 0.1 mg/100 g. For the same compound, in data set [1] (21±2° C.), the Dissolution rate is 0.1% or less.
Regarding `CC1=C(/C=C/C(C)=C/C=C/C(C)=C/C=C/C=C(C)/C=C/C=C(C)/C=C/C2=C(C)CCCC2(C)C)C(C)(C)CCC1` [β-Carotene], the AUC in “in vivo” is 110 ng·h/mL; in data set [2], 88.8 ng·h/mL; in data set [3], 131 ng·h/mL; in data set [4], 75 ng·h/mL. For the same compound, in data set [1], the Saturated solubility is 0.1 or less mg/100 g. Besides, the Dissolution rate in data set [1] (21±2° C.) is given as 0.1% or less.
In the case of `O=c1c(O)c(-c2ccc(O)cc2)oc2cc(O)cc(O)c12` [Kaempferol], the Saturated solubility in data set [1] is 0.1 mg/100 g. Moreover, the Dissolution rate in data set [1] (21±2° C.) is given as 0.1% or less.
As to `CC1=C(/C=C/C(C)=C/C=C/C(C)=C/C=C/C=C(C)/C=C/C=C(C)/C=C/C2=C(C)C[C@@H](O)CC2(C)C)C(C)(C)CCC1` [β-Cryptoxanthin], in data set [1], the Saturated solubility is recorded as 0.1 or less mg/100 g. Moreover, in data set [1] (21±2° C.), the Dissolution rate was 0.1% or less.
Taken in the same sequence, the figures for `CC1=C[C@H](O)CC(C)(C)[C@H]1/C=C/C(C)=C/C=C/C(C)=C/C=C/C=C(C)/C=C/C=C(C)/C=C/C1=C(C)C[C@@H](O)CC1(C)C` [Lutein] were 0.1 or less mg/100 g and 0.1% or less.
Take `C[C@@H]1O[C@@H](OC[C@H]2O[C@@H](Oc3c(-c4ccc(O)c(O)c4)oc4cc(O)cc(O)c4c3=O)[C@H](O)[C@@H](O)[C@@H]2O)[C@H](O)[C@H](O)[C@H]1O` [Rutin]: in data set [1], the Saturated solubility worked out at 1.0 mg/100 g.

For the origin of these results see patent publication US11684644B2, “Composition for promoting absorption of phytochemicals” (MEIJI CO., LTD., priority 2018, dated 2023).
